{
  "source": "patent US20240247236A1",
  "about": "“METHOD FOR PRODUCING PLURIPOTENT STEM CELLS” (KANEKA CORPORATION, priority 2021, published 2024)",
  "tested_on": "human iPS cell line 201B7",
  "experiment": "Quantitative real-time PCR analysis of germ layer marker genes in suspension culture of human iPS cell line 201B7",
  "assay_type": "cell-based",
  "conditions": "WNT inhibitor = IWR-1-endo 20 μM, PKCβ inhibitor = GF109203X 3 μM",
  "key": {"[1]": {"conditions": "day 10 of suspension culture, compared with adherent culture (Reference Example 1)"}},
  "procedure": "Human iPS cell line 201B7 after adherent culture in the same manner as in Reference Example 1 was treated with Accutase for 5 minutes to be detached from the culture surface, and the cells were dispersed into a single state by pipetting. The cells were suspended in StemFit (registered trademark) AK02N medium containing Y-27632 at a final concentration of 10 μM, and some of the cells were stained with trypan blue, followed by measurement of the viable cell count. A cell suspension was prepared using StemFit (registered trademark) AK02N medium containing Y-27632 at a final concentration of 10 μM such that the cell suspension included 2×10^5 cells per 1 mL. The cell suspension in an amount of 1 mL was seeded per well in a 12-well plate for suspension culture (Sumitomo Bakelite Co., Ltd.). The plate seeded with cells was rotated on a rotary shaker at a speed of 98 rpm along a horizontal plane in a circle with a rotation width (diameter) of 25 mm, during which the suspension culture was performed at 37° C. in a 5% CO2 environment.\nThe day when the cells were seeded was defined as day 0 of culture, passage was performed on day 5 of culture, and suspension culture was performed until day 10 of culture. Medium exchange was carried out every day. As for the method of medium exchange, the entire amount of the medium containing cell masses was collected into a centrifuge tube, and the tube was allowed to stand for about 5 minutes, thereby settling the cell masses. Then, the culture supernatant was removed, and the residue was gently resuspended in StemFit (registered trademark) AK02N medium, and returned to the original well.\nUpon medium exchange, Y-27632 was added to the medium at a final concentration of 5 μM on days 1 and 6 of culture, and Y-27632 was added to the medium at a final concentration of 2 μM on days 2 and 7 of culture. On day 5 of culture, the cell masses and culture supernatant were collected from the wells into a centrifuge tube and allowed to stand for about 5 minutes, thereby settling the cell masses. Then, the culture supernatant was removed.\nAfter adding 1 mL of Accutase to the cell masses, the cell masses were treated at 37° C. for 10 minutes and then dispersed into a single-cell state by pipetting. The cells were suspended in StemFit (registered trademark) AK02N medium containing Y-27632 at a final concentration of 10 μM, and some of the cells were stained with trypan blue, followed by measurement of the viable cell count. A cell suspension was prepared using StemFit (registered trademark) AK02N medium containing Y-27632 at a final concentration of 10 μM such that the cell suspension included 2×10^5 cells per 1 mL. Then, cell seeding was performed in the same manner as in the case of day 0 to continue the suspension culture.\nSuspension culture was performed in the same manner as in Reference Example 2, except that IWR-1-endo was added as a WNT inhibitor at a final concentration of 20 μM to the seeding medium and the medium exchanged for new medium for suspension culture.",
  "data": [
    {"compound": "O=C(Nc1cccc2cccnc12)c1ccc(N2C(=O)[C@@H]3[C@H](C2=O)[C@@H]2C=C[C@H]3C2)cc1", "note": "[IWR-1-endo, 4-(1,3,3a,4,7,7a-hexahydro-1,3-dioxo-4,7-methano-2H-isoindole-2-yl)-N-8-quinolinyl-benzamide]", "values": [
      {"measurement": "expression level of PAX6 (ectodermal marker gene)", "setting": "[1]", "result": "greater than that in Reference Example 1"},
      {"measurement": "expression level of SOX17 (endodermal marker gene)", "setting": "[1]", "result": "suppressed to the expression levels acceptable for the pluripotent stem cells as with Reference Example 1"},
      {"measurement": "expression level of TBXT (mesodermal marker gene)", "setting": "[1]", "result": "suppressed to the expression levels acceptable for the pluripotent stem cells as with Reference Example 1"},
      {"measurement": "spontaneous differentiation into ectoderm", "setting": "suspension culture", "result": "weak suppressive effect"},
      {"measurement": "spontaneous differentiation into mesoderm and endoderm", "setting": "suspension culture", "result": "can effectively suppress"}
    ]}
  ]
}
